For assay [1], the target named is EGFR Del19/T790M/C797S (Homo sapiens, UniProt P00533, C797S/DEL746-750/T790M). Briefly: Biochemical EGFR kinase inhibition assay (Lance Ultra TR-FRET), triple mutant del19/T790M/C797S. In a few lines:
(§1)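 Kinase activity is measured by TR-FRET phosphopeptide detection. Compounds span 0.003 μM to 10 μM; the 1 h reaction at room temperature is quenched with EDTA, then labelled antibody (2 nM) is incubated 60 min before reading.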
(Time-resolved FRET reads energy transfer from a long-lived donor to a nearby acceptor.)

Assay [2] addresses EGFR L858R/T790M/C797S (Homo sapiens, UniProt P00533, C797S/L858R/T790M). Briefly: Biochemical EGFR kinase inhibition assay (Lance Ultra TR-FRET), triple mutant L858R/T790M/C797S. In a few lines: as §1
Assay [3] deals with EGFR Del19/C797S (Homo sapiens, UniProt P00533, C797S/DEL746-750). The assay is described as follows: Biochemical EGFR kinase inhibition assay (Lance Ultra TR-FRET), double mutant del19/C797S. In a few lines:
as §1

Assay [4] concerns the target EGFR L858R/C797S (Homo sapiens, UniProt P00533, C797S/L858R). Briefly: Biochemical EGFR kinase inhibition assay (Lance Ultra TR-FRET), double mutant L858R/C797S. In a few lines:
as §1

Assay [5] concerns the target EGFR wildtype (WT) (Homo sapiens, UniProt P00533). The assay is described as follows: Biochemical EGFR kinase inhibition assay (Lance Ultra TR-FRET), wildtype. The procedure, abridged: as §1
Where [6] appears, read: IC50 Del19/T790M/C797S (nM), 100 μM ATP.
The mark [7] stands for this setting: IC50 L858R/T790M/C797S (nM), 100 μM ATP.
[8] abbreviates: IC50 Del19/C797S (nM), 100 μM ATP.
Setting [9] is: IC50 L858R/C797S (nM), 100 μM ATP.
Setting [10] is: Km ATP, read-out: IC50 Del19/T790M/C797S (nM), Km ATP.
The mark [11] stands for this setting: Km ATP, read-out: IC50 L858R/T790M/C797S (nM), Km ATP.
Setting [12] is: Km ATP, read-out: IC50 Del19/C797S (nM), Km ATP.
Setting [13] is: Km ATP, read-out: IC50 L858R/C797S (nM), Km ATP.
The mark [14] stands for this setting: Km ATP, read-out: IC50 WT (nM), Km ATP.
[15] abbreviates: ATP at Km, read-out: IC50 Del19/T790M/C797S (nM), Km ATP.
Setting [16] is: ATP at Km, read-out: IC50 L858R/T790M/C797S (nM), Km ATP.
Where [17] appears, read: ATP at Km, read-out: IC50 Del19/C797S (nM), Km ATP.
The mark [18] stands for this setting: ATP at Km, read-out: IC50 L858R/C797S (nM), Km ATP.
The mark [19] stands for this setting: ATP at Km, read-out: IC50 WT (nM), Km ATP.

Like-named read-outs stand apart in the source and are kept apart here. Bounds are passed on as bounds.

The record followed here is US11981658B2, “Substituted aminopyridine compounds as EGFR inhibitors” (YUHAN CORPORATION, priority 2021, dated 2024).

EGFR wildtype (WT), sequence (P00533 25-1210): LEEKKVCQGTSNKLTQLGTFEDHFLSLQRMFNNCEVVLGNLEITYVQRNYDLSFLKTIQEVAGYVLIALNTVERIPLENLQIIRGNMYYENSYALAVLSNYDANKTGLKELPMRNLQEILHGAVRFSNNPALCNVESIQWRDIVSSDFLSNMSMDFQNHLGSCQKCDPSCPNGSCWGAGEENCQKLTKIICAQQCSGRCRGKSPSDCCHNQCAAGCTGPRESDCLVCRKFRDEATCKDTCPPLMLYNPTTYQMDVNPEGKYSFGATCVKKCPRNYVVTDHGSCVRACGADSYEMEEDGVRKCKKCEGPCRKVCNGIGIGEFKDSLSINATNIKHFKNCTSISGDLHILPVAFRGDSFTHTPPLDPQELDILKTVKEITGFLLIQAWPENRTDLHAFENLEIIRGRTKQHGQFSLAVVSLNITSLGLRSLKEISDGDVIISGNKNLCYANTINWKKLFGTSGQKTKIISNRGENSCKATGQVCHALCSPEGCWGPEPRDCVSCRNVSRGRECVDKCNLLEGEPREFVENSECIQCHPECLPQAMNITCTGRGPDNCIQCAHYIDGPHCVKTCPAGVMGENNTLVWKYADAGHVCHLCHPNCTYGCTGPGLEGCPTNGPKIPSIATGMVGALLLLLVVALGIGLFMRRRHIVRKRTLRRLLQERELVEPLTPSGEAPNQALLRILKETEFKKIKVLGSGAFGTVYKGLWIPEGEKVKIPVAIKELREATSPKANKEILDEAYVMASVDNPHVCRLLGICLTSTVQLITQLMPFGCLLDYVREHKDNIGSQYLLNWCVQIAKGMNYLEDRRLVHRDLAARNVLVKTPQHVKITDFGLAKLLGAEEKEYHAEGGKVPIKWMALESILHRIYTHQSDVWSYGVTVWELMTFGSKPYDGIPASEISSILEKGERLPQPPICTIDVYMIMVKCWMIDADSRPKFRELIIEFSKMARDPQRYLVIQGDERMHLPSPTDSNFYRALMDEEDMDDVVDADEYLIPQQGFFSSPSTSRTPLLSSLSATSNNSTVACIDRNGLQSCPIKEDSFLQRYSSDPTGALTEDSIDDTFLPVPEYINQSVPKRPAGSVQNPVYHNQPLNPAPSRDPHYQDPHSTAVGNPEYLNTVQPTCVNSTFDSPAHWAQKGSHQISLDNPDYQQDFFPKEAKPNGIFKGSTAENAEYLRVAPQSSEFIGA
EGFR Del19/C797S, sequence (P00533 with tags, fused parts or gaps DEL746-750/C797S): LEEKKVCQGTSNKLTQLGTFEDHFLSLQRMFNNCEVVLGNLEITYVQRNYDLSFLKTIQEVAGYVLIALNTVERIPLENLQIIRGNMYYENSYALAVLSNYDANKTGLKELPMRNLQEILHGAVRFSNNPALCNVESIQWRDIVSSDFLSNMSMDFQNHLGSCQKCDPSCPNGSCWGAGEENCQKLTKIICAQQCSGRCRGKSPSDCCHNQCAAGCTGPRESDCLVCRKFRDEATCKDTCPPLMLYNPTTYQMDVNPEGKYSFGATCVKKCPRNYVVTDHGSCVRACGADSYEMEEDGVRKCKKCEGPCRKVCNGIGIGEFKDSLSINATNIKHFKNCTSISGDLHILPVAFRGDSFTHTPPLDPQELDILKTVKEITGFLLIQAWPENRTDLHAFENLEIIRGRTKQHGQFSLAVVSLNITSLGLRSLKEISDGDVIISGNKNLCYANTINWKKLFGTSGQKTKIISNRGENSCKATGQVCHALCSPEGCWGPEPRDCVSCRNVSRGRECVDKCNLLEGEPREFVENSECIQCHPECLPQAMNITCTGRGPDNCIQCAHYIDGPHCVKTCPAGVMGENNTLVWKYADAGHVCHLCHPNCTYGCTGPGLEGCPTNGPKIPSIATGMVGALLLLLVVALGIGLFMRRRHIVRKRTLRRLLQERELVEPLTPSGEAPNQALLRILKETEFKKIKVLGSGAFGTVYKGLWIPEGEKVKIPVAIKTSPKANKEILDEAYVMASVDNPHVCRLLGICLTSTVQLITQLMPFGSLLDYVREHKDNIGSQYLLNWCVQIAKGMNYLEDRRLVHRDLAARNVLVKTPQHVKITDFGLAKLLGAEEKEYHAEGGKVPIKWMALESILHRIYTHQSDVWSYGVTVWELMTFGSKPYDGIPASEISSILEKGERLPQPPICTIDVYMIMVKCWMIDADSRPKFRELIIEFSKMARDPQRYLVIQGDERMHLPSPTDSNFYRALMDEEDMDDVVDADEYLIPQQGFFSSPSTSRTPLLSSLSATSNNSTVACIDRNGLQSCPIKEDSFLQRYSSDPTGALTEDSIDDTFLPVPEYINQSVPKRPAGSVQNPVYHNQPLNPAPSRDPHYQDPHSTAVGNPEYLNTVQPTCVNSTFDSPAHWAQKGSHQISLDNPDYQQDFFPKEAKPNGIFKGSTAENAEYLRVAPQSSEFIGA
EGFR Del19/T790M/C797S, sequence (P00533 with tags, fused parts or gaps DEL746-750/T790M/C797S): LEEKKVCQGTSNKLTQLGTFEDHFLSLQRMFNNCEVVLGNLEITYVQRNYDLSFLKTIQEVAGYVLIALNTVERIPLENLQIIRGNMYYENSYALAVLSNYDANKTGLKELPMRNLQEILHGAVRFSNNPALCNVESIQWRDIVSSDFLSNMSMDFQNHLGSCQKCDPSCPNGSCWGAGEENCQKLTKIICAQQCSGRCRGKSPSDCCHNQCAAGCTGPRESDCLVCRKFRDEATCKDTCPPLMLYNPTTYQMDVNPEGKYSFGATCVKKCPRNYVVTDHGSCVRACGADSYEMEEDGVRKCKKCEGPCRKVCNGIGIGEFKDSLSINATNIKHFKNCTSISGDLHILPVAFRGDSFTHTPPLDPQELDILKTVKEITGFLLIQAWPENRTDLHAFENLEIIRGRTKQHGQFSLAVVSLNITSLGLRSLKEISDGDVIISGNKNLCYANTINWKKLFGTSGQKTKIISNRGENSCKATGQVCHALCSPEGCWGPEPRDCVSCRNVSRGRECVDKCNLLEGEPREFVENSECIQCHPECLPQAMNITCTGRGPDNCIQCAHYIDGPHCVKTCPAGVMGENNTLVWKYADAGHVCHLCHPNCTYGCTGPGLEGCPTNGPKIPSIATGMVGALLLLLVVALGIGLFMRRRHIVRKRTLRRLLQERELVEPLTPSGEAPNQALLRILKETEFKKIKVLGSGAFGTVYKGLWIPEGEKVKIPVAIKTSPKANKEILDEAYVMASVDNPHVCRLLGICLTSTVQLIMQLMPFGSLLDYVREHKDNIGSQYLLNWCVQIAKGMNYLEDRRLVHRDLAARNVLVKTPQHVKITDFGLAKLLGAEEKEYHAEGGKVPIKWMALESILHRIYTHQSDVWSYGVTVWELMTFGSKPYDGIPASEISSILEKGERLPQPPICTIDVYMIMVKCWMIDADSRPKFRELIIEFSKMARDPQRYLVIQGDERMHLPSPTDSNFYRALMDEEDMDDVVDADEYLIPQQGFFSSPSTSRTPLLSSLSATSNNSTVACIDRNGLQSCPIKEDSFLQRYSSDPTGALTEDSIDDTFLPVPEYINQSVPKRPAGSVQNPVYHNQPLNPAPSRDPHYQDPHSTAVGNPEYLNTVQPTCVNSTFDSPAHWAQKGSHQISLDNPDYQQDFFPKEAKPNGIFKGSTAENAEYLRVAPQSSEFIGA
EGFR L858R/T790M/C797S, sequence (P00533 25-1210 T790M/C797S/L858R): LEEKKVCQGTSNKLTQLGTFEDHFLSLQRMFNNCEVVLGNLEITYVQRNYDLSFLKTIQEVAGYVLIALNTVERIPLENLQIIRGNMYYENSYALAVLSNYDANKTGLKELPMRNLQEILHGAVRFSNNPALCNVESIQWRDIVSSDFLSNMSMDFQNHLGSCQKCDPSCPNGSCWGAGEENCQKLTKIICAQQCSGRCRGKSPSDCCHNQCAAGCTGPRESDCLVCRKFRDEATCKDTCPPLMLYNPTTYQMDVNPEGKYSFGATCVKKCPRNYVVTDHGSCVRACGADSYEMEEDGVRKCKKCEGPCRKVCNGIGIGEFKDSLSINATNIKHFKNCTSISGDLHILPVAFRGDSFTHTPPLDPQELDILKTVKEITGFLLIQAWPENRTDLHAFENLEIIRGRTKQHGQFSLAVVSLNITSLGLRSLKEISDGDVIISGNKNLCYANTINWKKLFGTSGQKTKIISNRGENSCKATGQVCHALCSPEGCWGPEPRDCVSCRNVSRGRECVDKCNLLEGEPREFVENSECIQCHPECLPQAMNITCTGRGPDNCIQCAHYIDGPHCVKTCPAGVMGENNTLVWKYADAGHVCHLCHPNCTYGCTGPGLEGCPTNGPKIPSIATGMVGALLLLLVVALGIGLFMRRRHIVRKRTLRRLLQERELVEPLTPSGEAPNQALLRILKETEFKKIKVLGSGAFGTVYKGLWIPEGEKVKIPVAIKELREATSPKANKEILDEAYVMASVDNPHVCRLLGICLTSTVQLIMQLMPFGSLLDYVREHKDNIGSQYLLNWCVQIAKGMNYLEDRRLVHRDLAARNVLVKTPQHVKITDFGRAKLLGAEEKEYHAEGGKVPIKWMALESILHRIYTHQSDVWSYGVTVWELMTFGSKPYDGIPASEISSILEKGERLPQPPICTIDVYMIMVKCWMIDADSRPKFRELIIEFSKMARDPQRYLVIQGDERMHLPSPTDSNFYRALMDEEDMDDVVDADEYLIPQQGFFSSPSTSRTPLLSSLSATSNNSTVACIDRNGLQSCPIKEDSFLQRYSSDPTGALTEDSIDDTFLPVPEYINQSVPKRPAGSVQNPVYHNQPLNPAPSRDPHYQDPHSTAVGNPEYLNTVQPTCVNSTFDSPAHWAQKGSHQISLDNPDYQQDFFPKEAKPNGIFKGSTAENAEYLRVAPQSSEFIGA

With `CN(C)CCC1CCN(c2cc(Nc3ccnc(-c4cnn(S(=O)(=O)C5CC5)c4)n3)ncc2C#CC2CCN(C(=O)C(F)(F)F)C2)CC1` (centres unmarked) [Example 413, 1-(3-((6-((2-(1-(Cyclopropylsulfonyl)-1H-pyrazol-4-yl)pyrimidin-4-yl)amino)-4-(4-(2-(dimethylamino)ethyl)piperidin-1-yl)pyridin-3-yl)ethynyl)pyrrolidin-1-yl)-2,2,2-trifluoroethan-1-one], the IC50 in assay [1] (setting [6]) was 0.1 nM; in assay [2] (setting [7]), 1.4 nM; in assay [3] (setting [8]), 0.8 nM; in assay [4] (setting [9]) it was 10.3 nM; in assay [5] (IC50 WT (nM), 100 μM ATP), 2910 nM.

On to `Cn1cc(C#Cc2cnc(Nc3ccnc(-c4cnn(S(=O)(=O)C5CC5)c4)n3)cc2N2CCCC(CF)C2)cn1` (centres unmarked) [Example 72, 2-(1-(Cyclopropylsulfonyl)-1H-pyrazol-4-yl)-N-(4-(3-(fluoromethyl)piperidin-1-yl)-5-((1-methyl-1H-pyrazol-4-yl)ethynyl)pyridin-2-yl)pyrimidin-4-amine], for which the IC50 is 2.8 nM in assay [1] (setting [6]); 16.9 nM in assay [2] (setting [7]); 50.3 nM in assay [3] (setting [8]); 170 nM in assay [4] (setting [9]); over 10000 nM in assay [5] (IC50 WT (nM), 100 μM ATP).

Turning to `CC1(CO)CCN(c2cc(Nc3ccnc(-c4cnn(S(=O)(=O)C5CC5)c4)n3)ncc2C#Cc2ccc(C(=O)N3CCC(O)CC3)cc2)CC1` [Example 446, (4-((6-((2-(1-(Cyclopropylsulfonyl)-1H-pyrazol-4-yl)pyrimidin-4-yl)amino)-4-(4-(hydroxymethyl)-4-methylpiperidin-1-yl)pyridin-3-yl)ethynyl)phenyl)(4-hydroxypiperidin-1-yl)methanone], the IC50 in assay [1] (setting [6]) was 1.2 nM; in assay [1] (setting [10]), 1 nM; in assay [2] (setting [7]) it was 0.4 nM; in assay [2] (setting [11]), 0.2 nM; in assay [3] (setting [8]), 1.3 nM; in assay [4] (setting [9]) it was 18.9 nM. The same molecule returned an IC50 in assay [5] (IC50 WT (nM), 100 μM ATP) of 2670 nM.

As to `CC1(C#Cc2cnc(Nc3ccnc(-c4cnn(S(=O)(=O)C5CC5)c4)n3)cc2N[C@H]2CC[C@@H](O)CC2)COC1` [Example 350, (1s,4s)-4-((2-((2-(1-(Cyclopropylsulfonyl)-1H-pyrazol-4-yl)pyrimidin-4-yl)amino)-5-((3-methyloxetan-3-yl)ethynyl)pyridin-4-yl)amino)cyclohexan-1-ol], the IC50 in assay [1] (setting [6]) is 2.8 nM; in assay [2] (setting [7]) it was 13.9 nM; in assay [3] (setting [8]), 81.4 nM; in assay [4] (setting [9]) it was 954 nM; in assay [5] (IC50 WT (nM), 100 μM ATP), over 10000 nM.

Consider `CC1OCCC1C#Cc1cnc(Nc2ccnc(-c3cnn(S(=O)(=O)C4CC4)c3)n2)cc1NC1CCC(O)CC1` (centres unmarked) [Example 433, (1 s,4s)-4-((2-((2-(1-(cyclopropylsulfonyl)-1H-pyrazol-4-yl)pyrimidin-4-yl)amino)-5-((2-methyltetrahydrofuran-3-yl)ethynyl)pyridin-4-yl)amino)cyclohexan-1-ol], for which the IC50 in assay [1] (setting [6]) amounted to 0.5 nM; in assay [1] (setting [10]), 0.4 nM; in assay [2] (setting [7]) it was 0.7 nM; in assay [2] (setting [11]), 0.2 nM; in assay [3] (setting [8]) it was 3.2 nM; in assay [3] (setting [12]) it was 1 nM. Also, the IC50 in assay [4] (setting [9]) stood at 90.8 nM; in assay [4] (setting [13]) it was 4 nM; in assay [5] (IC50 WT (nM), 100 μM ATP), 8720 nM; in assay [5] (setting [14]), 7.7 nM.

`CN(C)C[C@H]1CC[C@@H](Nc2cc(Nc3ccnc(-c4cnn(S(=O)(=O)C5CC5)c4)n3)ncc2C#Cc2cnn(C(F)(F)F)c2)CC1` [Example 314, N^2-(2-(1-(Cyclopropylsulfonyl)-1H-pyrazol-4-yl)pyrimidin-4-yl)-N^4-((1s,4s)-4-((dimethylamino)methyl)cyclohexyl)-5-((1-(trifluoromethyl)-1H-pyrazol-4-yl)ethynyl)pyridine-2,4-diamine]: the IC50 is 0.7 nM in assay [1] (setting [15]); 0.9 nM in assay [1] (setting [6]); 0.2 nM in assay [2] (setting [16]); 0.2 nM in assay [2] (setting [7]); 5.4 nM in assay [3] (setting [17]); 9.9 nM in assay [3] (setting [8]). For the same molecule, the IC50 in assay [4] (setting [18]) was 3.4 nM; in assay [4] (setting [9]) it was 78.4 nM; in assay [5] (setting [19]), 52.6 nM; in assay [5] (IC50 WT (nM), 100 μM ATP), over 10000 nM.

Consider `CN(C)CCn1cc(C#Cc2cnc(Nc3ccnc(-c4cnn(S(=O)(=O)C5CC5)c4)n3)cc2N2CCC(C)(CO)CC2)cn1` [Example 116, (1-(2-((2-(1-(Cyclopropylsulfonyl)-1H-pyrazol-4-yl)pyrimidin-4-yl)amino)-5-((1-(2-(dimethylamino)ethyl)-1H-pyrazol-4-yl)ethynyl)pyridin-4-yl)-4-methylpiperidin-4-yl)methanol], for which the IC50 turned out to be 0.4 nM in assay [1] (setting [6]); 0.3 nM in assay [1] (Km ATP, read-out: IC50 Del19/T790M/C797S (nM) Km ATP); 0.3 nM in assay [2] (setting [7]); 0.2 nM in assay [2] (Km ATP, read-out: IC50 L858R/T790M/C797S (nM) Km ATP); 0.6 nM in assay [3] (setting [8]); 0.3 nM in assay [3] (Km ATP, read-out: IC50 Del19/C797S (nM) Km ATP). Moreover, the IC50 stood at 1 nM in assay [4] (setting [9]); 0.2 nM in assay [4] (Km ATP, read-out: IC50 L858R/C797S (nM) Km ATP); 143 nM in assay [5] (IC50 WT (nM), 100 μM ATP); 1 nM in assay [5] (Km ATP, read-out: IC50 WT (nM) Km ATP).

For the molecule `O=S(=O)(C1CC1)n1cc(-c2nccc(Nc3cc(N[C@H]4CCC[C@@H](O)C4)c(C#Cc4ccc(CN5CCOCC5)cc4)cn3)n2)cn1` [Example 159, (1R,3S)-3-((2-((2-(1-(Cyclopropylsulfonyl)-1H-pyrazol-4-yl)pyrimidin-4-yl)amino)-5-((4-(morpholinomethyl)phenyl)ethynyl)pyridin-4-yl)amino)cyclohexan-1-ol], the IC50 is 8.3 nM in assay [1] (setting [15]); 10.6 nM in assay [1] (setting [6]); 3.4 nM in assay [2] (setting [16]); 9.6 nM in assay [2] (setting [7]); 7.7 nM in assay [3] (setting [17]); 21.7 nM in assay [3] (setting [8]). Moreover, the IC50 was 7.4 nM in assay [4] (setting [18]); 98.5 nM in assay [4] (setting [9]); 85.5 nM in assay [5] (setting [19]); over 10000 nM in assay [5] (IC50 WT (nM), 100 μM ATP).

As for `O=S(=O)(C1CC1)n1cc(-c2nccc(Nc3cc(N4CCC5(CCO5)CC4)c(C#Cc4ncc(CN5CCOCC5)cn4)cn3)n2)cn1` [Example 367, 2-(1-(Cyclopropylsulfonyl)-1H-pyrazol-4-yl)-N-(5-((5-(morpholinomethyl)pyrimidin-2-yl)ethynyl)-4-(1-oxa-7-azaspiro[3.5]nonan-7-yl)pyridin-2-yl)pyrimidin-4-amine], the IC50 worked out at 0.4 nM in assay [1] (setting [6]); 0.3 nM in assay [1] (setting [10]); 1.2 nM in assay [2] (setting [7]); 0.1 nM in assay [2] (setting [11]); 3.5 nM in assay [3] (setting [8]); 1.6 nM in assay [3] (setting [12]). Moreover, the IC50 was 25.6 nM in assay [4] (setting [9]); 3.9 nM in assay [4] (setting [13]); over 10000 nM in assay [5] (IC50 WT (nM), 100 μM ATP); 7.6 nM in assay [5] (setting [14]).

In the case of `CC1(CO)CCN(c2cc(Nc3ccnc(-c4cnn(S(=O)(=O)C5CC5)c4)n3)ncc2C#Cc2ccc(CN3CCOCC3)cn2)CC1` [Example 185, (1-(2-((2-(1-(Cyclopropylsulfonyl)-1H-pyrazol-4-yl)pyrimidin-4-yl)amino)-5-((5-(morpholinomethyl)pyridin-2-yl)ethynyl)pyridin-4-yl)-4-methylpiperidin-4-yl)methanol], the IC50 in assay [1] (setting [15]) was determined as 0.4 nM; in assay [1] (setting [6]), 1.2 nM; in assay [2] (setting [16]), 0.2 nM; in assay [2] (setting [7]), 1.1 nM; in assay [3] (setting [17]), 0.5 nM; in assay [3] (setting [8]) it was 0.8 nM. For the same molecule, the IC50 in assay [4] (setting [18]) is 0.9 nM; in assay [4] (setting [9]) it was 6.8 nM; in assay [5] (setting [19]), 1.7 nM; in assay [5] (IC50 WT (nM), 100 μM ATP) it was over 10000 nM.

Regarding `CC1(CO)CCN(c2cc(Nc3ccnc(-c4cnn(S(=O)(=O)C5CC5)c4)n3)ncc2C#CC2(O)COC2)CC1` [Example 354, 3-((6-((2-(1-(Cyclopropylsulfonyl)-1H-pyrazol-4-yl)pyrimidin-4-yl)amino)-4-(4-(hydroxymethyl)-4-methylpiperidin-1-yl)pyridin-3-yl)ethynyl)oxetan-3-ol], the IC50 came to 0.2 nM in assay [1] (setting [6]); 0.2 nM in assay [1] (setting [10]); 0.2 nM in assay [2] (setting [7]); 0.1 nM in assay [2] (setting [11]); 0.5 nM in assay [3] (setting [8]); 0.3 nM in assay [3] (setting [12]). In addition, the IC50 in assay [4] (setting [9]) was found to be 8.6 nM; in assay [4] (setting [13]) it was 0.8 nM; in assay [5] (IC50 WT (nM), 100 μM ATP), 1630 nM; in assay [5] (setting [14]) it was 5.1 nM.
